Key:
[1] = system: NCI-H1975 (ATCC CRL-5908) cell line comprising an EGFR T790M L858R double mutation; test: EGFR-SOS cellular inhibition assay (CellTiter-Glo cell proliferation); type: cell-based; conditions: Homo sapiens, 120 h; NCI-H1975 cell proliferation, approximately 5 days; read-out: H1975 IC50
Procedure: A CellTiter-Glo (CTG) luminescent based assay (Promega) is used to assess growth of the cells, as a measurement of the ability of the compounds herein to inhibit EGFR signaling in the cells. […] The day after plating, cells are treated with a dilution series (e.g., a 9 point 3-fold dilution series) of the compounds herein (e.g., approximately 125 μL final volume per well).

SOS1 = SOS1 (Homo sapiens (Human), UniProt Q07889); test: Ras-SOS interaction assay (HTRF), K-Ras G13D utilized; type: binding; conditions: K-Ras G13D, read-out: SOS1 IC50
Text: For example, the equilibrium interaction of human SOS1 (hSOS1) with human wildtype Kras or K-Ras mutant (e.g., hK-Ras G12C mutant, or hK-Ras G12C) can be assessed as a proxy or an indication for a subject compound's ability to inhibit SOS. Detection of such interaction is achieved by measuring homogenous time-resolved fluorescence resonance energy transfer (HTRF) from (i) a fluorescence resonance energy transfer (FRET) donor (e.g., antiGST-Europium) that is bound to GST-tagged K-Ras G12C to (ii) a FRET acceptor (e.g., anti-6His-XL665) bound to a His-tagged hSOS1.
A Ras working solution is prepared in assay buffer containing typically 10 nM of the protein construct (e.g., GST-tagged hK-Ras G12C) and 2 nM of the FRET donor (e.g., antiGST-Eu(K) from Cisbio, France). A SOS1 working solution is prepared in assay buffer containing typically 10 nM of the protein construct (e.g., His-hSOS1) and 10 nM of the FRET acceptor (e.g., anti-6His-XL665 from Cisbio, France). An inhibitor control solution is prepared in assay buffer containing 10 nM of the FRET acceptor without the SOS1 protein.
A fixed reaction mixture with or without test compound is transferred into a 384-well plate. Ras working solution is added to all wells of the test plate. SOS1 working solution is added to all wells except for those that are subsequently filled with the inhibitor control solution. […] The ratiometric data (i.e., emission 2 divided by emission 1) is used to calculate IC50 values against SOS1 using GraphPad Prism (GraphPad software).

SOS1, sequence (Q07889 564-1049): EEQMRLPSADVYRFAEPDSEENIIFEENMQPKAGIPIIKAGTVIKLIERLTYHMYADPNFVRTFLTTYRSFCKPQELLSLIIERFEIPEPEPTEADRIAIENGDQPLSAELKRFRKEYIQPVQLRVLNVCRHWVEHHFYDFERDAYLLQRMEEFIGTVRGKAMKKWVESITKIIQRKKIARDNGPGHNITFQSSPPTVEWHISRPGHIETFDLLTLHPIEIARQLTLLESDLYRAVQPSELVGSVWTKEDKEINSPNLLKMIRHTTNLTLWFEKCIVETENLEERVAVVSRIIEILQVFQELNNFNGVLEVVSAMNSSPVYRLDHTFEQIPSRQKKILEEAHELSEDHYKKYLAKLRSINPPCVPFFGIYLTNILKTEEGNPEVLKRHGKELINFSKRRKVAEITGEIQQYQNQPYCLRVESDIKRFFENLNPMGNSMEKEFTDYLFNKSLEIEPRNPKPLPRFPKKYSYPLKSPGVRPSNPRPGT

Row | SMILES | IC50 [1] | IC50 (SOS1)
1 | CC(C)N1CCN(c2cc3c4ncnc3n(c2=O)CCCCCN2CCC(CC2)CCC(F)(F)c2cccc(c2)[C@@H](C)N4)CC1 [Compound 154, (3R)-5,5-difluoro-1^6-(4-isopropylpiperazin-1-yl)-3-methyl-1^7,1^8-dihydro-2-aza-1(4,8)-pyrido[2,3-d]pyrimidina-8(4,1)-piperidina-4(1,3)-benzenacyclotridecaphan-1^7-one] | < 1 µM | < 0.1 µM
2 | C[C@H]1Nc2ncnc3c2cc(C2(C#N)CC2)c(=O)n3CCCCNC(=O)CN2CCC(CC2)C(F)(F)c2cccc1c2F [Compound 147, 1-((4R)-3^2,2,2-trifluoro-4-methyl-6^7,12-dioxo-6^7,6^8-dihydro-5,11-diaza-6(4,8)-pyrido[2,3-d]pyrimidina-1(4,1)-piperidina-3(1,3)-benzenacyclotridecaphane-6^6-yl)cyclopropane-1-carbonitrile] | < 1 µM | < 0.1 µM
3 | C[C@H]1Nc2ncnc3c2cc(C2(C#N)CC2)c(=O)n3CCCCn2cc(nn2)CN2CCC(CC2)C(F)(F)c2cccc1c2F [Compound 126, 1-((6R,Z)-5^2,4,4-trifluoro-6-methyl-8^7-oxo-8^7,8^8-dihydro-1^1H-7-aza-8(4,8)-pyrido[2,3-d]pyrimidina-3(1,4)-piperidina-1(4,1)-triazola-5(1,3)-benzenacyclododecaphane-8^6-yl)cyclopropane-1-carbonitrile] | < 1 µM | < 0.1 µM
4 | C[C@H]1Nc2ncnc3c2cc(N2CCS(=O)(=O)CC2)c(=O)n3CCCCCCCN2CCC(CC2)C(F)(F)c2cccc1c2 [Compound 42, (4R)-6^6-(1,1-dioxidothiomorpholino)-2,2-difluoro-4-methyl-6^7,6^8-dihydro-5-aza-6(4,8)-pyrido[2,3-d]pyrimidina-1(4,1)-piperidina-3(1,3)-benzenacyclotridecaphan-6^7-one] | < 1 µM | < 0.1 µM
5 | C[C@H]1Nc2ncnc3c2cc(C2(C#N)CC2)c(=O)n3CCCC(=O)N(C)CCN2CCC(CC2)C(F)(F)c2cccc1c2 [Compound 27, 1-((4R)-2,2-difluoro-4,11-dimethyl-6^7,10-dioxo-6^7,6^8-dihydro-5,11-diaza-6(4,8)-pyrido[2,3-d]pyrimidina-1(4,1)-piperidina-3(1,3)-benzenacyclotridecaphane-6^6-yl)cyclopropane-1-carbonitrile] | < 1 µM | < 0.1 µM
6 | C[C@H]1Nc2ncnc3c2cc(N2CCOCC2)c(=O)n3CCCCCCCN2CCC(CC2)C(F)(F)c2cccc1c2 [Compound 64, (4R)-2,2-difluoro-4-methyl-6^6-morpholino-6^7,6^8-dihydro-5-aza-6(4,8)-pyrido[2,3-d]pyrimidina-1(4,1)-piperidina-3(1,3)-benzenacyclotridecaphan-6^7-one] | < 1 µM | < 0.1 µM
7 | C[C@H]1Nc2ncnc3c2cc(C2CCS(=O)(=O)CC2)c(=O)n3CCCCCCCN2CCC(CC2)C(F)(F)c2cccc1c2 [Compound 83, (4R)-6^6-(1,1-dioxidotetrahydro-2H-thiopyran-4-yl)-2,2-difluoro-4-methyl-6^7,6^8-dihydro-5-aza-6(4,8)-pyrido[2,3-d]pyrimidina-1(4,1)-piperidina-3(1,3)-benzenacyclotridecaphan-6^7-one] | < 1 µM | < 0.1 µM
8 | C[C@H]1Nc2ncnc3c2cc(C2(C#N)CCS(=O)(=O)CC2)c(=O)n3CCCCCN2CCC(CC2)CCC(F)(F)c2cccc1c2 [Compound 8, 4-((3R)-5,5-difluoro-3-methyl-1^7-oxo-1^7,1^8-dihydro-2-aza-1(4,8)-pyrido[2,3-d]pyrimidina-8(4,1)-piperidina-4(1,3)-benzenacyclotridecaphane-1^6-yl)tetrahydro-2H-thiopyran-4-carbonitrile 1,1-dioxide] | < 1 µM | < 0.1 µM
9 | C[C@H]1Nc2ncnc3c2cc(C2CCS(=O)(=O)CC2)c(=O)n3CC/C=C\CC(C)(C)CN2CCC(CC2)C(F)(F)c2cccc1c2 [Compound 92, (4R,Z)-6^6-(1,1-dioxidotetrahydro-2H-thiopyran-4-yl)-2,2-difluoro-4,12,12-trimethyl-6^7,6^8-dihydro-5-aza-6(4,8)-pyrido[2,3-d]pyrimidina-1(4,1)-piperidina-3(1,3)-benzenacyclotridecaphan-9-en-6^7-one] | < 1 µM | < 0.1 µM
10 | Cc1nc2c3cc(C4(C#N)CC4)c(=O)n(c3n1)CCCCCCOCC(F)(F)c1cccc(c1F)[C@@H](C)N2 [Compound 130, 1-((3R)-4^2,5,5-trifluoro-1^2,3-dimethyl-1^7-oxo-1^7,1^8-dihydro-7-oxa-2-aza-1(4,8)-pyrido[2,3-d]pyrimidina-4(1,3)-benzenacyclotridecaphane-1^6-yl)cyclopropane-1-carbonitrile] | 1 to 10 µM | 0.1 to 5 µM
11 | Cc1nc2c3cc(C4(C#N)CC4)c(=O)n(c3n1)CCCCCCCCOCC(F)(F)c1cccc(c1F)[C@@H](C)N2 [Compound 49, 1-((3R)-4^2,5,5-trifluoro-1^2,3-dimethyl-1^7-oxo-1^7,1^8-dihydro-7-oxa-2-aza-1(4,8)-pyrido[2,3-d]pyrimidina-4(1,3)-benzenacyclopentadecaphane-1^6-yl)cyclopropane-1-carbonitrile] | < 1 µM | < 0.1 µM
12 | Cc1nc2c3cc(C4(C#N)CC4)c(=O)n(c3n1)CC/C=C\CN1CCC(CC1)C(F)(F)c1cccc(c1)[C@@H](C)N2 [Compound 172, 1-((4R,Z)-2,2-difluoro-6^2,4-dimethyl-6^7-oxo-6^7,6^8-dihydro-5-aza-6(4,8)-pyrido[2,3-d]pyrimidina-1(4,1)-piperidina-3(1,3)-benzenacycloundecaphan-9-en-6^6-yl)cyclopropane-1-carbonitrile] | < 1 µM | 0.1 to 5 µM
13 | C[C@H]1Nc2ncnc3c2cc(C2(C#N)CC2)c(=O)n3CC(=O)NCCCCN2CCC(CC2)C(F)(F)c2cccc1c2 [Compound 132, 1-((4R)-2,2-difluoro-4-methyl-6^7,8-dioxo-6^7,6^8-dihydro-5,9-diaza-6(4,8)-pyrido[2,3-d]pyrimidina-1(4,1)-piperidina-3(1,3)-benzenacyclotridecaphane-6^6-yl)cyclopropane-1-carbonitrile] | < 1 µM | < 0.1 µM
14 | C[C@H]1Nc2nnc(c3c2cc(C2CCS(=O)(=O)CC2)c(=O)n3C)OCCCCN2CCC(CC2)C(F)(F)c2cccc1c2F [Compound 87, (R)-6^3-(1,1-dioxidotetrahydro-2H-thiopyran-4-yl)-3^2,2,2-trifluoro-6^1,4-dimethyl-6^1,6^2-dihydro-7-oxa-5-aza-6(5,8)-pyrido[2,3-d]pyridazina-1(4,1)-piperidina-3(1,3)-benzenacycloundecaphan-6^2-one] | < 1 µM | 0.1 to 5 µM
15 | C[C@H]1Nc2ncnc3c2cc(C2CCS(=O)(=O)CC2)c(=O)n3CCCCCCCCCN2CCC(CC2)C(F)(F)c2cccc1c2 [Compound 47, (4R)-6^6-(1,1-dioxidotetrahydro-2H-thiopyran-4-yl)-2,2-difluoro-4-methyl-6^7,6^8-dihydro-5-aza-6(4,8)-pyrido[2,3-d]pyrimidina-1(4,1)-piperidina-3(1,3)-benzenacyclopentadecaphan-6^7-one] | < 1 µM | < 0.1 µM

— patent US20230339952A1, “MACROCYCLIC HETEROCYCLES AND USES THEREOF” (Kumquat Biosciences Inc., priority 2022, published 2023)
